Reference: patent US11312719B2, “9-substituted amino triazolo quinazoline derivatives as adenosine receptor antagonists, pharmaceutical compositions and their use” (Merck Sharp & Dohme Corp., priority 2018, dated 2022)

Tests used:
[1] = biological target: human A2b adenosine receptor (Homo sapiens (Human), UniProt P29275); assay: A2b radioligand filtration binding assay; conditions: membranes from HEK293 cells expressing human A2b receptor
Protocol: Measurement of A2b Binding Affinity
The reported affinity of the compounds of the invention for the human A2b adenosine receptor was determined experimentally using a radioligand filtration binding assay. This assay measures the amount of binding of a tritiated proprietary A2b receptor antagonist, in the presence and absence of a compound of the invention, to membranes made from HEK293 cells recombinantly expressing the human A2b adenosine receptor (Perkin Elmer, Cat. No. ES-013-C).
148 μL (135 μg/mL) membranes and 2 μL test compounds were transferred to individual wells of a 96-well polypropylene assay plate and incubated for 15 to 30 minutes at room temperature with agitation. Tritiated radioligand was diluted to a concentration of 14 nM in assay buffer (phosphate buffered saline without Magnesium and Calcium, pH 7.4; GE Healthcare Life Sciences, Cat. No. SH30256.01) and then 50 μL of the solution were transferred to each well of the assay plate. To define total and non-specific binding, wells containing 1% DMSO and 20 μM N-ethylcarboxamidoadenosine (Tocris Bioscience, Cat. No. 1691) respectively, were also included. The wells of the assay plate were incubated at room temperature for 60 minutes with agitation, then filtered using a FilterMate Harvester® (Perkin Elmer) or similar equipment through a UniFilter-96® PEI coated plate (Perkin Elmer Cat. No. 6005274 or 6005277). Filtering was achieved by aspirating the contents of the assay plate for 5 seconds, then washing and aspirating the contents three times with ice-cooled wash buffer (assay buffer supplemented with 0.0025% Brij58) and allowing the vacuum manifold to dry the plate for 30 seconds. The filter plate was incubated for at least 1 hour at 55° C. and allowed to dry. The bottom of the filter plate was then sealed with backing tape. 40 μL Ultima Gold™ (Perkin Elmer, Cat. No. 6013329) was added to each well of the filter plate and the top of the plate was sealed with TopSeal-A PLUS® clear plate seal (Perkin Elmer, Cat. No. 6050185). The plates were then incubated for at least 20 minutes, and then the amount of radioactivity remaining in each well was determined using a TopCount® (Perkin Elmer) scintillation counter. After normalization to total and non-specific binding, the percent effect at each compound concentration was calculated. The plot of percent effect versus the log of compound concentration was analyzed electronically using a 4-parameter logistic fit based on the Levenberg-Marquardt algorithm to generate IC50 values.

[2] = biological target: human A2a adenosine receptor (Homo sapiens (Human), UniProt P29274); assay: A2a receptor affinity radioligand binding assay ([3H] SCH58261); conditions: for IC50: membranes from HEK293 or CHO cells expressing human A2a receptor
Protocol: The A2a receptor affinity binding assay measured the amount of binding of a tritiated ligand with high affinity for the A2a adenosine receptor to membranes made from HEK293 or CHO cells recombinantly expressing the human A2a adenosine receptor, in the presence of varying concentrations of a compound of the invention.
Measurement of A2a Binding Affinity Using Radioligand Binding
148 μL (5 μg/mL) membranes (Perkin Elmer, Cat. No. RBHA2aM400UA) and 2 μL compounds of the invention to be tested (test compound) were transferred to individual wells of a 96-well polypropylene assay plate and incubated for 15 to 30 minutes at room temperature. [^3H] SCH58261 ((7-(2-phenylethyl)-5-amino-2-(2-furyl)-pyrazolo-[4,3-e]-1,2,4-triazolo[1,5-c]pyrimidine)) was diluted in assay buffer (50 mM Tris pH 7.4, 10 mM MgCl2, 0.005% Tween20) to a concentration of 4 nM and 50 μL transferred to each well of the assay plate. To define total and non-specific binding, wells containing 1% DMSO and 1 μM ZM241385 (Tocris Bioscience, Cat. No. 1036) respectively, were also included. The assay plate was incubated at room temperature for 60 minutes with agitation. Using a FilterMate Harvester® (Perkin Elmer), the contents of the assay plate were filtered through a UniFilter-96® PEI coated plate (Perkin Elmer Cat. No. 6005274 or 6005277). Filtering was achieved by aspirating the contents of the assay plate for 5 seconds, then washing and aspirating the contents three times with ice-cooled wash buffer (50 mM Tris-HCl pH 7.4, 150 mM NaCl) and allowing the vacuum manifold to dry the plate for 30 seconds. The filter plate was incubated for at least 1 hour at 55° C., and allowed to dry. The bottom of the filter plate was sealed with backing tape. 40 μL Ultima Gold™ (Perkin Elmer, Cat. No. 6013329) was added to each well of the filter plate and the top of the plate was sealed with TopSeal-A PLUS® clear plate seal (Perkin Elmer, Cat. No. 6050185). The plate was incubated for at least 20 minutes, and then the amount of radioactivity remaining in each well was determined using a TopCount® (Perkin Elmer) scintillation counter. After normalization to total and non-specific binding, the percent effect at each compound concentration was calculated. The plot of percent effect versus the log of compound concentration was analyzed electronically using a 4-parameter logistic fit based on the Levenberg-Marquardt algorithm to generate IC50 values.

Sequence of human A2a adenosine receptor (P29274 whole entry): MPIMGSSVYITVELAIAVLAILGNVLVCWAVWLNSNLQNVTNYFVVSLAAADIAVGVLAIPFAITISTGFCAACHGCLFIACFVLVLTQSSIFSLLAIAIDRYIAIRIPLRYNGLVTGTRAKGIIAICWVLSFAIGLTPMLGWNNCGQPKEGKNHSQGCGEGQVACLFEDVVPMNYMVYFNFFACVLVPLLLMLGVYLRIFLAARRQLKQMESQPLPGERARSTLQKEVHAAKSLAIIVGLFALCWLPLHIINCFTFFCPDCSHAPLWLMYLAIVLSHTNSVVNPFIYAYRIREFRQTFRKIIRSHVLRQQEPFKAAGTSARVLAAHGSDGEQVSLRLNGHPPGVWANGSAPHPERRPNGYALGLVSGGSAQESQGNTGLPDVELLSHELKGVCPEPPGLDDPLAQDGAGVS
Sequence of human A2b adenosine receptor (P29275 whole entry): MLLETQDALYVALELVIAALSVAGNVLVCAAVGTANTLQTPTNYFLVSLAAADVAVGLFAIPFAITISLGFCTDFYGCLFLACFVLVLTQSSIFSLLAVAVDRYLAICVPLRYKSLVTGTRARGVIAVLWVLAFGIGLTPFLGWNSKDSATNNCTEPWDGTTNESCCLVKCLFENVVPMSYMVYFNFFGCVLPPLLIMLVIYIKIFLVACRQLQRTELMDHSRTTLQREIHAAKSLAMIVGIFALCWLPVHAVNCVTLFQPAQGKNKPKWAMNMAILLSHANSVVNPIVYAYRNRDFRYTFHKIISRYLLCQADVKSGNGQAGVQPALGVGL

## COc1cc2nc(N)n3nc([C@H]4C[C@@H](C)CN(c5cnn(CC(C)(C)O)c5)C4)nc3c2cc1F (single isomer, unassigned) [Example 91, 1-(4-((3S,5R or 3R,5S)-3-(5-amino-9-fluoro-8-methoxy-[1,2,4]triazolo[1,5-c]quinazolin-2-yl)-5-methylpiperidin-1-yl)-1H-pyrazol-1-yl)-2-methylpropan-2-ol]
[1]
  IC50: 4620 nM
[2]
  IC50: 44.7 nM

## COc1cc2nc(N)n3nc([C@@H]4CCCN(c5cnn(C)c5)C4)nc3c2cc1F [Example 2, (R)-9-fluoro-8-methoxy-2-(1-(1-methyl-1H-pyrazol-4-yl)piperidin-3-yl)-[1,2,4]triazolo[1,5-c]quinazolin-5-amine]
[1]
  IC50: 9.4 nM
[2]
  IC50: 3.7 nM

## COc1cc(F)cc2c1nc(N)n1nc(C3CCC(C)N(c4cnn(CC(C)(C)O)c4)C3)nc21 (single isomer, unassigned) [Example 121, 1-(4-((2S or 2R,5R or 5S)-5-(5-amino-9-fluoro-7-methoxy-[1,2,4]triazolo[1,5-c]quinazolin-2-yl)-2-methylpiperidin-1-yl)-1H-pyrazol-1-yl)-2-methylpropan-2-ol]
[1]
  IC50: 5340 nM
[2]
  IC50: 55.4 nM

## COc1cc2nc(N)n3nc([C@@H]4CCCN(c5cn(CC(C)(C)O)nc5C)C4)nc3c2cc1F [Example 9, (R)-1-(4-(3-(5-amino-9-fluoro-8-methoxy-[1,2,4]triazolo [1,5-c]quinazolin-2-yl)piperidin-1-yl)-3-methyl-1H-pyrazol-1-yl)-2-methylpropan-2-ol]
[1]
  IC50: 136 nM
[2]
  IC50: 0.5 nM

## COc1ccc2nc(N)n3nc(C4CCCN(c5cnn(C)c5)C4)nc3c2c1 (single isomer, unassigned) [Example 108, (R or S)-9-methoxy-2-(1-(1-methyl-1H-pyrazol-4-yl)piperidin-3-yl)-[1,2,4]triazolo[1,5-c]quinazolin-5-amine]
[1]
  IC50: 8470 nM
[2]
  A2A binding % Inh. @ 1000 nM: 36% Inh.

## COc1cc2nc(N)n3nc(C4CN(c5cnn(CC(C)(C)O)c5C)CCS4(=O)=O)nc3c2cc1F (single isomer, unassigned) [Example 144, (R or S)-2-(5-amino-9-fluoro-8-methoxy-[1,2,4]triazolo[1,5-c]quinazolin-2-yl)-4-(1-(2-hydroxy-2-methylpropyl)-5-methyl-1H-pyrazol-4-yl)thiomorpholine 1,1-dioxide]
[1]
  IC50: 7140 nM
[2]
  A2A binding % Inh. @ 1000 nM: 30% Inh. @

## COc1cc(F)cc2c1nc(N)n1nc(C3CC(F)CN(c4cnn(CC5(O)CCC5)c4)C3)nc21 (single isomer, unassigned) [Example 72, 1-(4-((3R,5S or 3S,5R)-3-(5-amino-9-fluoro-7-methoxy-[1,2,4]triazolo[1,5-c]quinazolin-2-yl)-5-fluoropiperidin-1-yl)-1H-pyrazol-1-yl)methyl)cyclobutan-1-ol]
[1]
  IC50: 484 nM
[2]
  IC50: 2 nM

## COc1cc2nc(N)n3nc([C@@H]4CCCN(c5cnn([C@H]6CCC[C@]6(C)O)c5)C4)nc3c2cc1F (single isomer, unassigned) [Example 83, (1S or 1R,2S or 2R)-2-(4-((R)-3-(5-amino-9-fluoro-8-methoxy-[1,2,4]triazolo[1,5-c]quinazolin-2-yl)piperidin-1-yl)-1H-pyrazol-1-yl)-1-methylcyclopentan-1-ol]
[1]
  IC50: 113 nM
[2]
  IC50: 2.7 nM

## COc1cc(F)cc2c1nc(N)n1nc(C3CCC(C)N(c4cnn(CC(C)(C)O)c4)C3)nc21 (single isomer, unassigned) [Example 120, 1-(4-((2R or 2S,5S or 5R)-5-(5-amino-9-fluoro-7-methoxy-[1,2,4]triazolo[1,5-c]quinazolin-2-yl)-2-methylpiperidin-1-yl)-1H-pyrazol-1-yl)-2-methylpropan-2-ol]
[1]
  IC50: 7.8 nM
[2]
  IC50: 0.6 nM

## COc1cc2nc(N)n3nc([C@@H]4CCCN(c5cnn([C@H]6CC[C@]6(C)O)c5)C4)nc3c2cc1F (single isomer, unassigned) [Example 98, (1S or 1R,2S or 2R)-2-(4-((R)-3-(5-amino-9-fluoro-8-methoxy-[1,2,4]triazolo[1,5-c]quinazolin-2-yl)piperidin-1-yl)-1H-pyrazol-1-yl)-1-methylcyclobutan-1-ol]
[1]
  IC50: 116 nM
[2]
  IC50: 0.9 nM

## COc1cc(F)cc2c1nc(N)n1nc([C@@H]3CCCN(c4nc(C)n(CC(C)(C)O)n4)C3)nc21 [Example 37, (R)-1-(3-(3-(5-amino-9-fluoro-7-methoxy-[1,2,4]trazolo[1,5-c]quinazolin-2-yl)piperidin-1-yl)-5-methyl-1H-1,2,4-triazol-1-yl)-2-methylpropan-2-ol]
[1]
  IC50: 468 nM
[2]
  IC50: 1.1 nM

## COc1cc2nc(N)n3nc([C@@H]4CCCN(c5cnn(CCCC(C)=O)c5)C4)nc3c2cc1F [Example 93, (R)-5-(4-(3-(5-amino-9-fluoro-8-methoxy-[1,2,4]triazolo[1,5-c]quinazolin-2-yl)piperidin-1-yl)-1H-pyrazol-1-yl)pentan-2-one]
[1]
  IC50: 315 nM
[2]
  IC50: 5.8 nM

## COc1cc2nc(N)n3nc(C4CCC(C)N(c5cn(CC(C)(C)O)nc5C)C4)nc3c2cc1F [Example 53, 1-(4-((2R,5S, or 2S,5R)-5-(5-amino-9-fluoro-8-methoxy-[1,2,4]triazolo[1,5-c]quinazolin-2-yl)-2-methylpiperidin-1-yl)-3-methyl-1H-pyrazol-1-yl)-2-methylpropan-2-ol]
[1]
  IC50: 4240 nM
[2]
  IC50: 44.1 nM

## COc1cc2nc(N)n3nc([C@@H]4CC[C@H](C)N(c5cnn(C6CCC(C)(O)CC6)c5)C4)nc3c2cc1F (single isomer, unassigned) [Example 96, rac-(1r,4s or 1r,4r)-4-(4-((2S,5R or 2R,5S)-5-(5-amino-9-fluoro-8-methoxy-[1,2,4]triazolo[1,5-c]quinazolin-2-yl)-2-methylpiperidin-1-yl)-1H-pyrazol-1-yl)-1-methylcyclohexan-1-ol]
[1]
  IC50: 24.6 nM
[2]
  IC50: 0.7 nM

## COc1cc(F)cc2c1nc(N)n1nc(C3CCCCN(c4cnn(CC(C)(C)O)c4)C3)nc21 (racemic) [Example 39, rac-1-(4-(3-(5-amino-9-fluoro-7-methoxy-[1,2,4]triazolo [1,5-c]quinazoln-2-yl)azepan-1-yl)-1H-pyrazol-1-yl)-2-methylpropan-2-ol]
[1]
  IC50: 43.3 nM
[2]
  IC50: 1.1 nM

## COc1cc(F)cc2c1nc(N)n1nc(C3(F)CCCN(c4cnn(CC(C)(C)O)c4)C3)nc21 (single isomer, unassigned) [Example 134, (R or S)-1-(4-(3-(5-amino-9-fluoro-7-methoxy-[1,2,4]triazolo[1,5-c]quinazolin-2-yl)-3-fluoropiperidin-1-yl)-1H-pyrazol-1-yl)-2-methylpropan-2-ol]
[1]
  IC50: 4290 nM
[2]
  IC50: 124 nM
